# Legend:
# p53 = experiment: Induction of cellular p53 by cell death inducers, immunoblotting; assay type: cell-based, human; details: WISH cells; 24 h (TNFα plus IFN-γ 48 h)
# Method: The following experiment was carried out in order to confirm that the protective effect of C/EBPβ from cell death inducers is independent of the transfection process. Thus, B16 mouse melanoma cells, stably transfected with an inducible C/EBPβ expression vector (Clone F-10.9) were obtained from M. Revel and J. Chebath, Weizmann Institute of Science, Israel. Induction of C/EBPβ expression was triggered by addition of the antibiotic doxycycline (1 μg/ml, 24 h, Sigma) to the culture medium and was evaluated by both RT-PCR and immunoblotting. RT-PCR was performed as follows: F-10.9 cells (10^6) were harvested and total RNA was extracted by using the Rneasy® kit- from QIAGEN. cDNA was prepared by using random hexamers (Invitrogen) and M-MLV Reverse Transcriptase (Promega) according to the manufacturer's instructions. PCR was performed with the following primers: mouse C/EBPβ, 5′-[…] and 5′-[…]. Amplifications were done by initial denaturation (95° C., 4 min), 27 cycles of denaturation (95° C., 80 s), annealing (57° C., 60 s) and extension (72° C., 80 s), and final extension (72° C., 5 min). The resulting PCR products were resolved by agarose (1%) gel electrophoresis. […] For immunoblotting, cells were washed three times with ice-cold PBS and immediately frozen in liquid nitrogen. Cell pellets were re-suspended in four packed cell volumes of cytoplasmic buffer (10 mM Hepes, pH 7.9, 10 mM NaCl, 0.2 mM EDTA, 5% glycerol, 1.5 mM MgCl2, 1 mM DTT, 0.5 mM PMSF, 50 mM NaF, 0.1 mM Na3VO4, 2 mM EGTA, 10 mM Na2MoO4, 2 μg/ml each of leupeptin, pepstatin, and aprotinin). The suspension was freeze/thawn twice, incubated on ice for 20 min and then centrifuged (3,000×g, 10 min, 4° C.). The supernatant containing the proteins was collected and protein concentration was determined by a BCA Protein assay kit (Pierce), using BSA as a standard. Protein extracts (10 μg) were boiled in SDS/PAGE sample buffer containing 25 mM DTT and the supernatant was resolved by SDS/PAGE (10% acrylamide). The gel was then blotted onto a nitrocellulose membrane and proteins were detected with the indicated antibodies. Immune complexes were identified with a Super Signal detection kit (Pierce.).
# It was recently reported that C/EBPβ binds to p53 and inhibits its activity, part of which could be induction of apoptosis. We carried out several experiments to find out if the protective effect of C/EBPβ over-expression against apoptosis induced by cell death inducers involves inhibition of p53. Initially, we determined which of the cell death inducers used for induction of apoptosis elevates the level of cellular p53. For this purpose, WISH cells were treated with; etoposide (50 μM for 24 h); MG262 (0.1 μM, for 24 h); TNFα (100 ng/ml) plus IFN-γ (1000 IU/ml) for 48 h; doxorubicin (1.8 μM, for 24 h); vincristine (0.1 μg/ml, for 24 h); FasL (60 ng/ml, 24 h); tunicamycin (1 μg/ml, for 24 h) or ALLN (26 μM, for 24 h), and extracts of these cells were subjected to immunoblotting with anti p53 (mab dd1+1801, 1:40 from M. Oren, WIS) as described in Example 6.
# WISH cells = experiment: Protection of WISH cells from cell death by pre-incubation with IGF-1 or IL-6; assay type: cell-based, human
# Method: WISH cells were pre-incubated with IGF-1 (200 ng/ml) for the indicated times. Doxorubicin (2 μM, for 16 h) was then added. […] The same results were obtained when apoptosis was induced by MG262, TNF-α plus IFN-γ, and tunicamycin (data not shown).
# WISH Cells (30,000 cells/well) were pre incubated with 6.25, 12.5, 25, 50, 100, 200, 300, 400, 500, or 1000 IU/ml of IL-6 for 6 h and then 26 μM ALLN was added for 48 h.
Molecule,induction of p53 (immunoblotting with anti p53) (p53),other results
CC(C)C[C@H](NC(=O)[C@H](CC(C)C)NC(=O)[C@H](CC(C)C)NC(=O)OCc1ccccc1)B(O)O [MG262],extensive induction of p53,–
COc1cccc2c1C(=O)c1c(O)c3c(c(O)c1C2=O)C[C@@](O)(C(=O)CO)C[C@@H]3O[C@H]1C[C@H](N)[C@H](O)[C@H](C)O1 [doxorubicin],extensive induction of p53,–
COc1cc([C@@H]2c3cc4c(cc3[C@@H](O[C@@H]3O[C@@H]5CO[C@@H](C)O[C@H]5[C@H](O)[C@H]3O)[C@H]3COC(=O)[C@H]23)OCO4)cc(OC)c1O [etoposide],did not induce p53,–
CC[C@]1(O)C[C@H]2CN(CCc3c([nH]c4ccccc34)[C@@](C(=O)OC)(c3cc4c(cc3OC)N(C=O)[C@H]3[C@@](O)(C(=O)OC)[C@H](OC(C)=O)[C@]5(CC)C=CCN6CC[C@]43[C@@H]65)C2)C1 [vincristine],did not induce p53,–
IGF-1: growth factor IGF-1 added to the culture medium,–,"protection of WISH cells from doxorubicin (WISH cells; IGF-1 200 ng/ml pre-incubation, doxorubicin 2 μM, 16 h): did not protect; protection of WISH cells from other apoptosis inducers (WISH cells; IGF-1, apoptosis induced by MG262, TNF-α plus IFN-γ, and tunicamycin, data not shown): same results"
IL-6: cytokine IL-6,–,"protection from apoptosis induced by ALLN (WISH cells; IL-6 6.25-1000 IU/ml, 6 h before ALLN 26 μM, 48 h): did not protect"
tunicamycin,did not induce p53,–
"FasL: Fas ligand, cytotoxic cytokine (protein, UniProt P48023 130-281, looked up) Tumor necrosis factor ligand …: QIGHPSPPPEKKELRKVAHLTGKSNSRSMPLEWEDTYGIVLLSGVKYKKGGLVINETGLYFVYSKVYFRGQSCNNLPLSHKVYMRNSKYPQDLVMMEGKMMSYCTTGQMWARSSYLGAVFNLTSADHLYVNVSELSLVNFEESQTFFGLYKL",did not induce p53,–

# — patent publication US20090263354A1, “Compositions and siRNAs for inhibiting C/EBPbeta” (Yeda Research and Development Co., Ltd., priority 2006, published 2009)
